This assay relates to DNA duplex (DNA, duplex) CAATCGGATCGAATTCGATCCGATTG
Kind of assay: fluorescent intercalator displacement. To be noted: K+ (50 mM KCl, 10 mM KH2PO4); 1 mM K2EDTA, pH 7.4, room temperature; thiazole orange 0.5 μM displaced (Kf 3 × 10^6 M^-1); duplex 0.25 μM.

Consider `NN1C(=O)c2c(c3c4ccccc4n([C@@H]4OC[C@H](O)[C@H](O)[C@H]4O)c3c3[nH]c4ccccc4c23)C1=O`, for which the Kb entry is recorded as “(1.24 ± 0.07) × 10^6 M^-1”.

Take `O=C(NN1C(=O)c2c(c3c4ccccc4n([C@H]4OC[C@@H](O)[C@H](O)[C@H]4O)c3c3[nH]c4ccccc4c23)C1=O)c1ccccn1`: the Kb result was “(2.52 ± 0.4) × 10^5 M^-1”.

(Values after publication PMC8658795 (2021).)
